Results from patent US8637665B2, “Pyrrolo[2,L-C][L,4]benzodiazepine-benzothiazole or benzoxazole conjugates linked through piperazine moiety and process for the preparation thereof” (priority 2010, dated 2014).
Read-outs that look alike come from different tables or passages of the source.

Key:
[1] = test system: KB (oral cancer) cell line; assay: In vitro anticancer activity, SRB assay, KB; type: cell-based, human; settings: for GI50: mean of three determinations; for CC50: read-out: LC50 KB, 50% cell death
Experimental: (§1) Anticancer activity: In vitro biological activity studies were carried out at the Advance Center for Treatment Research & Education in Cancer (ACTREC), Navi Mumbai.
(§2) The compounds were evaluated for in vitro anticancer activity against eight tumour cells lines derived from seven cancer types (non-small-cell lung, colon, oral, cervix, ovarian, prostate, and breast cancer) as shown in Table 2. For each compound, dose response curves for each cell line were measured at a minimum of five concentrations at 10 fold dilutions. A protocol of 48 h continuous drug exposure was used and a sulforhodamine B (SRB) protein assay was used to estimate cell viability or growth. The concentration causing 50% cell growth inhibition (GI50) and 50% cell death (LC50, −50% growth) compared with the control was calculated. Compounds 9a-9l have been evaluated for their in vitro cytotoxicity in eight cell lines from seven human cancer types of lung (Hop-62, A-549) colon (COLO-205) cervix (Si—Ha), ovary (A-2780), prostate (PC3) breast (MCF7), oral (KB). The results are expressed as percent of cell growth determined relative to that of untreated control cells (Table-8 and table-9).

[2] = test system: duplex-form calf thymus DNA (CT-DNA); assay: Thermal denaturation studies with calf thymus DNA (DNA binding affinity); settings: [PBD]:[DNA] 1:5, CT-DNA 100 μM, ligand 20 μM, pH 7.00
Experimental: Compounds have been subjected to thermal denaturation studies with duplex-form calf thymus DNA (CT-DNA) using an modification of a reported procedure (Newman, M. S. Carcinog-compr. Surv. 1976,1, 203; (b) Hecht, S. S.; Loy, M.; Hoffman, Carcinog-compr. Surv. 1976, 1, 325). Working solutions in aqueous buffer (10 mM NaH2PO4/Na2HPO4, 1 mM Na2EDTA, pH 7.00+0.01) containing CT-DNA (100 μm in phosphate) and the PBD (20 μm) have been prepared by addition of concentrated PBD solutions in DMSO to obtain a fixed [PBD]/[DNA] molar ratio of 1:5. The DNA-PBD solutions have been incubated at 37° C. for 0 and 18 h prior to analysis. Samples have been monitored at 260 using a Beckman DU-800 spectrophotometer fitted with high performance temperature controller, and heated at 1° C. min^−1 in the 40-110° C. range. DNA helix→coil transition temperatures (Tm) have been obtained from the maxima in the d(A260)/dT derivative plots. Drug-induced alterations in DNA melting behavior are given by: ΔTm=Tm(DNA+PBD)−Tm(DNA alone), where the Tm value for the PBD-free CT-DNA is 69.1±0.01.
The DNA binding activity for these novel C8-linked benzothiazole, benzoxazole-PBD hybrids has been examined by thermal denaturation studies using calf thymus (CT) DNA. […] The data for the compounds 9a-n is included in Table 7 for comparison.

[3] = test system: PC 3 (prostate cancer) cell line; assay: cells; type: cell-based; settings: for CC50: read-out: LC50 Pc 3, 50% cell death; for GI50: read-out: GI50 PC 3
Experimental: as §1, §2

[4] = test system: HOP 62 (lung cancer) cell line; assay: cells; type: cell-based; settings: for GI50: mean of three determinations; for LC50: read-out: LC50 HOP 62, 50% cell death
Experimental: as §1, §2

[5] = test system: MCF 7 (breast cancer) cell line; assay: cells; type: cell-based; settings: for LC50 (concentration causing 50% cell death): read-out: LC50 MCF 7, 50% cell death; for GI50: read-out: GI50 MCF 7
Experimental: as §1, §2

[6] = test system: Colo 205 (colon cancer) cell line; assay: cells; type: cell-based; settings: for CC50: read-out: LC50 Colo 205; for GI50: mean of three determinations
Experimental: as §1, §2

[7] = test system: A 2780 (ovary cancer) cell line; assay: cells; type: cell-based; settings: for CC50: read-out: LC50 A 2780, 50% cell death; for GI50: mean of three determinations
Experimental: as §1, §2

[8] = test system: A 549 (lung cancer) cell line; assay: cells; type: cell-based; settings: for GI50: mean of three determinations
Experimental: as §1, §2

[9] = test system: SiHa (cervix cancer) cell line; assay: cells; type: cell-based; settings: for LC50 (concentration causing 50% cell death): read-out: LC50 SiHa, 50% cell death; for GI50: mean of three determinations
Experimental: as §1, §2

[10] = test system: eight tumour cells lines derived from seven cancer types; assay: In vitro anticancer activity, SRB assay, panel of eight cell lines; type: cell-based; settings: Homo sapiens, range over the eight cell lines per compound; read-out: GI50 range against cancer cell lines
Experimental: as §1, §2

[11] = Homo sapiens, 48 h, 48 h drug exposure, SRB
[12] = 48 h drug exposure, SRB, mean of three determinations
[13] = Homo sapiens, MCF7, 48 h, 48 h drug exposure, SRB
[14] = Homo sapiens, A2780, 48 h, 48 h drug exposure, SRB
[15] = Homo sapiens, SiHa, 48 h, 48 h drug exposure, SRB
[16] = Homo sapiens, 48 h, read-out: GI50 KB, 48 h drug exposure, SRB
[17] = Homo sapiens, HOP-62, 48 h, read-out: GI50 HOP 62, 48 h drug exposure, SRB
[18] = Homo sapiens, HOP-62, 48 h, 48 h drug exposure, SRB
[19] = Homo sapiens, COLO 205, 48 h, read-out: GI50 Colo 205, 48 h drug exposure, SRB
[20] = Homo sapiens, A2780, 48 h, read-out: GI50 A 2780, 48 h drug exposure, SRB
[21] = Homo sapiens, A549, 48 h, read-out: GI50 A 549, 48 h drug exposure, SRB
[22] = Homo sapiens, A549, 48 h, read-out: LC50 A 549, 50% cell death, 48 h drug exposure, SRB
[23] = Homo sapiens, SiHa, 48 h, read-out: GI50 SiHa, 48 h drug exposure, SRB

COc1cc2c(cc1OCCCCN1CCN(CCCCOc3ccc(-c4nc5ccccc5s4)cc3)CC1)N=C[C@@H]1CCCN1C2=O [Compound 9l, 7-Methoxy-8-[4-(4-{4-[4(1,3-benzothiazol-2-yl)-phenoxy]butyl}piperazin-1-yl)butyl]oxy-(11aS)-1,2,3,11a-tetrahydro-5H-pyrrolo[2,1-c][1,4]benzodiazepin-5-one]
GI50 ([1]; 48 h drug exposure, SRB, listed as 91, read-out: GI50 KB): 0.11 µM
GI50 ([1]; 48 h drug exposure, SRB, read-out: GI50 KB): 0.11 µM
CC50 [1, 11]: 2 µM
ΔTm after incubation at 37° C. for 0 h [2]: 11.5 °C
ΔTm after incubation at 37° C. for 18 h [2]: 11.8 °C
CC50 [3, 11]: 2100 nM
GI50 [3, 12]: < 10 nM
CC50 ([4]; human, 48 h): 2500 nM
GI50 ([4]; read-out: GI50 HOP 62, 48 h drug exposure, SRB): 110 nM
LC50 (concentration causing 50% cell death) [5, 13]: 160 nM
GI50 [5, 12]: < 10 nM
CC50 ([6]; Homo sapiens, COLO 205, 48 h): > 100 µM
GI50 ([6]; read-out: GI50 Colo 205, 48 h drug exposure, SRB): < 10 nM
CC50 [7, 14]: 2100 nM
GI50 ([7]; read-out: GI50 A 2780, 48 h drug exposure, SRB): 99 nM
CC50 ([8]; human, 48 h): 30 µM
GI50 ([8]; read-out: GI50 A 549, 48 h drug exposure, SRB): < 10 nM
LC50 (concentration causing 50% cell death) [9, 15]: 28 µM
GI50 ([9]; read-out: GI50 SiHa, 48 h drug exposure, SRB): 125 nM
GI50 [10]: ≤ 125 nM

COc1cc2c(cc1OCCCN1CCN(CCCOc3ccc(-c4nc5ccccc5o4)cc3)CC1)N=C[C@@H]1CCCN1C2=O [Compound 9i]
GI50 [1, 16]: < 0.01 µM
CC50 [1, 11]: 28 µM
ΔTm after incubation at 37° C. for 0 h [2]: 9.5 °C
ΔTm after incubation at 37° C. for 18 h [2]: 9.7 °C
GI50 ([3]; Homo sapiens, 48 h): < 10 nM
CC50 [3, 11]: 230 nM
GI50 [4, 17]: 110 nM
LC50 [4, 18]: 27 µM
GI50 ([5]; Homo sapiens, MCF7, 48 h): < 10 nM
LC50 (concentration causing 50% cell death) [5, 13]: 150 nM
GI50 [6, 19]: < 10 nM
CC50 ([6]; Homo sapiens, COLO 205, 48 h): > 100 µM
GI50 [7, 20]: 80 nM
CC50 [7, 14]: 2250 nM
GI50 [8, 21]: < 10 nM
CC50 [8, 22]: > 100 µM
GI50 [9, 23]: 117 nM
LC50 (concentration causing 50% cell death) [9, 15]: 28.5 µM
GI50 [10]: ≤ 117 nM

COc1cc2c(cc1OCCCN1CCN(CCCOc3ccc(-c4nc5ccc(F)cc5s4)cc3)CC1)N=C[C@@H]1CCCN1C2=O [Compound 9c]
GI50 [1, 16]: 0.11 µM
CC50 [1, 11]: 26 µM
ΔTm after incubation at 37° C. for 0 h [2]: 10.3 °C
ΔTm after incubation at 37° C. for 18 h [2]: 10.7 °C
GI50 ([3]; Homo sapiens, 48 h): 110 nM
CC50 [3, 11]: 2300 nM
GI50 [4, 17]: 110 nM
LC50 [4, 18]: 29 µM
GI50 ([5]; Homo sapiens, MCF7, 48 h): < 10 nM
LC50 (concentration causing 50% cell death) [5, 13]: 170 nM
GI50 [6, 19]: 130 nM
CC50 ([6]; Homo sapiens, COLO 205, 48 h): > 100 µM
GI50 [7, 20]: 116 nM
CC50 [7, 14]: 2300 nM
GI50 [8, 21]: < 10 nM
CC50 [8, 22]: 33 µM
GI50 [9, 23]: 130 nM
LC50 (concentration causing 50% cell death) [9, 15]: 27 µM
GI50 [10]: ≤ 130 nM
